Measurements as given in article PMC9820118, “Betulin Acid Ester Derivatives Inhibit Cancer Cell Growth by Inducing Apoptosis through Caspase Cascade Activation: A Comprehensive In Vitro and In Silico Study” (International Journal of Molecular Sciences, 2022).
Where two headings read alike, the source gives them in different places.

Columns and labels:
MV4-11 cells = assay: Antiproliferative activity, MTT assay, MV4-11 leukemia cells; type: cell-based, human; details: for IC50: 72 h incubation, MTT, read-out: Growth inhibition IC50, leukemia cell line MV4-11; for Calculated Selectivity Index SI, MV4-11: IC50 BALB/3T3 / IC50 MV4-11
Method: (§1) The in vitro antiproliferative activity tests have been conducted against four human cancer cell lines: MV4-11 biphenotypic B myelomonocytic leukemia cell line, A549 lung carcinoma cell line, MCF-7 breast carcinoma cell line, PC-3 prostate carcinoma cell line and one normal BALB/3T3 mouse fibroblast cell line. […] All tested compounds were dissolved in DMSO and diluted with a culture medium to a desired concentration. […] Cell viability, after 72 h incubation of the cells with tested compounds, was determined using tetrazolinum dye MTT (for MV4-11 cells) or sulforhodamine B (SRB test, for MCF-7, A549, PC-3, BALB/3T3 cells) colorimetric assays.
(§2) Human biphenotypic B myelomonocytic leukemia MV4-11, murine normal fibroblast BALB/3T3 cells were obtained from the American Type Culture Collection (USA); and human lung carcinoma A549, human breast cancer MCF-7 and human prostate adenocarcinoma PC-3 were obtained from the European Collection of Authenticated Cell Cultures (UK).
(§3) MV4-11 and PC-3 cells were cultured in RPMI 1640 medium (HIIET PAS, Poland) with 1.0 mM sodium pyruvate (only MV4-11) and 10% fetal bovine serum (FBS) (all from Merck, Darmstadt, Germany). A549 cells were cultured in RPMI 1640 + Opti-MEM (1:1) ((HIIET PAS, Poland and Gibco, UK) supplemented with 5% fetal bovine serum (Merck, Darmstadt, Germany). The MCF-7 cells were cultured in Eagle medium (HIIET PAS, Poland) supplemented with 8 mg/mL of insulin and 1% of MEM NON-Essential amino acid (all Merck, Darmstadt, Germany). Normal fibroblasts BALB/3T3 cells were cultured in DMEM medium (Gibco, UK) supplemented with 10% fetal bovine serum and 1.0 mM sodium pyruvate (all from Merck, Darmstadt, Germany). All culture media were supplemented with 2 mM L-glutamine (Merck, Darmstadt, Germany), 100 units/ml penicillin, (Polfa Tarchomin S.A., Poland) and 100 µg/mL streptomycin (Merck, Darmstadt, Germany). All cell lines were grown at 37 °C in a 5% CO2 humidified atmosphere.
(§4) The solutions of the tested compounds were prepared by dissolving the substances in DMSO to the desired concentration (25 mM). Then, the tested compounds were diluted in a culture medium to reach the final concentrations. Before addition of the tested compounds (24 h prior), the cells were plated in 96-well plates (Sarstedt, Germany) at a density of 1 × 10^4, 0.75 × 10^4 (MCF-7) or 0.5 × 10^4 (A549) cells per well. The assay was performed after 72 h of exposure to 100, 10, 1 and 0.1 µM concentration of the tested agents. […] The SRB method determined the amount of cellular proteins. The concentration of the colorimetric probe (formazan in MTT or sulforhodamine B in SRB method) was determined by an optical density measurement using a standard microplate reader for 96-well plates. After optical density measurement, using the data of the mean absorbances of control cells (AbCC), the absorbances of cells treated by the tested compound (AbTr) (for each concentration separately) and the absorbance of the cultured medium (AbCM) the % of cell proliferation inhibition was calculated according to the following formula: % inh. cells proliferation=100−AbTr−AbCM/AbCC−AbCM×100
(§5) From the obtained proliferation inhibition values, effect-concentration curves of the compound used were plotted. […] IC50 values were calculated for each experiment separately using the Prolab-3 system based on Cheburator 0.4 software [36] and mean values (±SD) are presented. Each compound in each concentration was tested in triplicate in a single experiment, which was repeated 3–5 times.

in vitro = details: mouse
Method: as §1, §2, §3, §4, §5

[1] = Experimental lipophilicity by RP-TLC; details: for RM0: RP-TLC, RP-18 F254S, acetone / Tris buffer pH 7.4, extrapolated to zero acetone; for log PTLC: from RM0 by calibration curve with eight reference compounds
Method: The retention mechanism in the RP-TLC method is based on the partition of substances between two phases. Silica gel (RP-18 F254S plates) was used as the hydrophobic stationary phase. In contrast, the hydrophilic mobile phase was a binary mixture of acetone and an aqueous solution of TRIS buffer.
Chromatographic analysis by RP-TLC was performed an aluminum backed silica gel RP-18 F254S
phenylanthracene] and tested betulin derivatives were dissolved in chloroform to obtain a
concentration of 2 mg/mL. The prepared solutions were spotted on the plates in the amount of 2 μL.
the next step, the chromatographic chambers were saturated 30 min of the appropriate mobile phases
consisting of a mixture of acetone (Merck, Darmstadt, Germany) and aqueous solution of buffer Tris
[(tris-hydroxymethyl)aminomethane] (Fluka, Loughborough, 0.2 M, pH 7.4). The amount of acetone in
the mobile phase were in the range 60-90% in 5% increments. The chromatograms were developed for
each compound in triplicate at room temperature. The spots of betulin derivatives were visualized by
spraying the plates with the mixture of ethanol and concentrated sulfuric acid (10:1, v/v) and heating
The retardation factor (Rf) were calculated according to the equation below:
(a-the distance from the start line to the spot center, b-the distance from the start line to the mobile
The RM values were calculated by the Bate-Smith and Westall equation:
The RM0 parameters were obtained by extrapolating on the acetone content to zero, according to the
Soczewiński-Wachtmeister equation:
(C-the percentage concentration of acetone in the mobile phase, b-the slope of the regression plot).
The calibration curve was determined using eight reference compounds.
compounds were determined under the same conditions as for betulin derivatives (Table S1).

A549 cell line = assay: Antiproliferative activity, SRB assay, A549 lung carcinoma cells; details: for IC50: Homo sapiens, A549, 72 h, read-out: Cytotoxicity IC50 against A549 cell line; for Calculated Selectivity Index SI, A549: IC50 BALB/3T3 / IC50 A549
Method: as §1, §2, §3, §4, §5

MCF-7 cell line = assay: Antiproliferative activity, SRB assay, MCF-7 breast carcinoma cells; details: for IC50: Homo sapiens, MCF7, 72 h, read-out: Cytotoxicity IC50 against MCF-7 cell line; for Calculated Selectivity Index SI, MCF-7: IC50 BALB/3T3 / IC50 MCF-7
Method: as §1, §2, §3, §4, §5

PC-3 cell line = assay: Antiproliferative activity, SRB assay, PC-3 prostate carcinoma cells; details: for IC50: Homo sapiens, PC-3, 72 h, read-out: Cytotoxicity IC50 against PC-3 cell line; for Calculated Selectivity Index SI, PC-3: IC50 BALB/3T3 / IC50 PC-3
Method: as §1, §2, §3, §4, §5

[2] = Cytotoxicity, SRB assay, normal BALB/3T3 fibroblasts; details: mouse
Method: as §1, §2, §3, §4, §5

[3] = Solubility in DMSO for stock preparation; type: physicochemical

| Structure (SMILES) | IC50 (MV4-11 cells) | IC50 (MV4-11 cells; Homo sapiens, MV4-11, 72 h) | Calculated Selectivity Index SI, MV4-11 (MV4-11 cells) | IC50 at 72 h (in vitro) | RM0 [1] | IC50 (A549 cell line) | Calculated Selectivity Index SI, A549 (A549 cell line) | IC50 (MCF-7 cell line) | Calculated Selectivity Index SI, MCF-7 (MCF-7 cell line) | IC50 (PC-3 cell line) | Calculated Selectivity Index SI, PC-3 (PC-3 cell line) | Antiproliferative Activity, PC-3 (PC-3 cell line; +/− summary, IC50 vs betulin 1) | IC50 at 72 h ([2]; BALB/3T3 normal fibroblast cells) | solubility in DMSO [3] | log PTLC [1] | IC50 at 72 h [2] |
| --- | --- | --- | --- | --- | --- | --- | --- | --- | --- | --- | --- | --- | --- | --- | --- | --- |
| C=C(C)[C@@H]1CC[C@]2(COC(=O)CCCC(=O)N3CCOCC3)CC[C@]3(C)C(CCC4[C@@]5(C)CC[C@H](O)C(C)(C)C5CC[C@]43C)C12 (some centres unmarked) [4b] | 6.27 µM | < 10 µM | 5.9 | 36.8 µM | 4.961 | 8.47 µM | 4.3 | 21.6 µM | 1.7 | 22.7 µM | 1.6 |  |  |  |  |  |
| C=C(C)C1CCC2(COC(=O)C=C(C)C(=O)N3CCSCC3)CCC3(C)C(CCC4C5(C)CCC(O)C(C)(C)C5CCC43C)C12 (centres unmarked) [3d] |  |  | 11.8 | > 50 µM | 5.711 | 6.78 µM | 7.4 | 34 µM | 1.5 | 46.1 µM | 1.1 |  |  |  |  |  |
| C#CCNC(=O)CCC(=O)OC[C@]12CC[C@@H](C(=C)C)C1C1CCC3[C@@]4(C)CC[C@H](O)C(C)(C)C4CC[C@@]3(C)[C@]1(C)CC2 (some centres unmarked) [2a] |  | 2.03 µM | 1.5 | 3.1 µM | 4.863 | 19.2 µM | 0.2 | 29.8 µM | 0.1 | 4.47 µM | 0.7 | + |  |  |  |  |
| COc1cccc2c1C(=O)c1c(O)c3c(c(O)c1C2=O)C[C@@](O)(C(=O)CO)C[C@@H]3O[C@H]1C[C@H](N)[C@H](O)[C@H](C)O1 [Doxorubicin, doxorubicin, reference compound] |  | 0.01 µM | 18.0 |  |  | 0.04 µM | 4.5 | 0.08 µM | 2.3 | 0.43 µM | 0.4 |  | 0.18 µM |  |  |  |
| C=C(C)C1CCC2(COC(=O)C=C(C)C(=O)O)CCC3(C)C(CCC4C5(C)CCC(O)C(C)(C)C5CCC43C)C12 (centres unmarked) [compound 3] |  | 19.9 µM | 1.9 | 37.2 µM | 5.410 | 28.7 µM | 1.3 | 38.2 µM | 1.0 | 34.4 µM | 1.1 |  |  |  |  |  |
| C=C(C)C1CCC2(COC(=O)C=C(C)C(=O)N3CCOCC3)CCC3(C)C(CCC4C5(C)CCC(O)C(C)(C)C5CCC43C)C12 (centres unmarked) [3b] | 8.9 µM | < 10 µM | 2.8 | 24.7 µM | 5.086 | 7.42 µM | 3.3 | 12.3 µM | 2.0 | 24.8 µM | 1.0 |  |  |  |  |  |
| C=C(C)[C@@H]1CC[C@]2(COC(=O)CCCC(=O)O)CC[C@]3(C)C(CCC4[C@@]5(C)CC[C@H](O)C(C)(C)C5CC[C@]43C)C12 (some centres unmarked) [compound 4] |  | 24 µM | 1.6 | 37.9 µM | 5.250 | 32.5 µM | 1.2 | 43.9 µM | 0.9 | 36.2 µM | 1.0 |  |  |  |  |  |
| C=C(C)C1CCC2(COC(=O)C=C(C)C(=O)N3CCCCC3)CCC3(C)C(CCC4C5(C)CCC(O)C(C)(C)C5CCC43C)C12 (centres unmarked) [3c] |  |  |  |  | 5.650 |  |  |  |  |  |  |  |  | not soluble in DMSO |  |  |
| C=C(C)[C@@H]1CC[C@]2(COC(=O)CCCCCCCCCC(=O)N3CCCCC3)CC[C@]3(C)C(CCC4[C@@]5(C)CC[C@H](O)C(C)(C)C5CC[C@]43C)C12 (some centres unmarked) [5c] |  |  |  |  | 5.768 |  |  |  |  |  |  |  |  | not soluble in DMSO |  |  |
| C#CCNC(=O)CCCC(=O)OC[C@]12CC[C@@H](C(=C)C)C1C1CCC3[C@@]4(C)CC[C@H](O)C(C)(C)C4CC[C@@]3(C)[C@]1(C)CC2 (some centres unmarked) [4a] |  |  | 1.2 | 5.02 µM | 5.158 | 29.1 µM | 0.2 | 50 µM | 0.1 |  | 0.3 |  |  |  |  |  |
| C#CCNC(=O)c1ccccc1C(=O)OC[C@]12CC[C@@H](C(=C)C)C1C1CCC3[C@@]4(C)CC[C@H](O)C(C)(C)C4CC[C@@]3(C)[C@]1(C)CC2 (some centres unmarked) [6a] |  | 24 µM |  |  | 6.016 |  |  |  |  |  |  |  |  |  | 8.332 |  |
| C=C(C)[C@@H]1CC[C@]2(COC(=O)CCCC(=O)N3CCSCC3)CC[C@]3(C)C(CCC4[C@@]5(C)CC[C@H](O)C(C)(C)C5CC[C@]43C)C12 (some centres unmarked) [4d] | 7.04 µM | < 10 µM | 7.1 | > 50 µM | 5.008 | 40.2 µM | 1.2 | 50 µM | 1.0 | 50 µM | 1.0 |  |  |  |  |  |
| C=C(C)[C@@H]1CC[C@]2(COC(=O)c3ccccc3C(=O)O)CC[C@]3(C)C(CCC4[C@@]5(C)CC[C@H](O)C(C)(C)C5CC[C@]43C)C12 (some centres unmarked) [compound 6] |  | 34.4 µM |  |  | 5.979 |  |  |  |  |  |  |  |  |  | 8.283 |  |
| C=C(C)[C@@H]1CC[C@]2(CO)CC[C@]3(C)[C@H](CC[C@@H]4[C@@]5(C)CC[C@H](O)C(C)(C)[C@@H]5CC[C@]43C)[C@@H]12 [Betulin 1, betulin] |  | 18.2 µM | 1.8 |  |  | 15.5 µM | 2.0 | 38.8 µM | 0.8 | 32.5 µM | 1.0 |  |  |  |  | 31.8 µM |
| C=C(C)[C@@H]1CC[C@]2(COC(=O)c3ccccc3C(=O)N3CCSCC3)CC[C@]3(C)C(CCC4[C@@]5(C)CC[C@H](O)C(C)(C)C5CC[C@]43C)C12 (some centres unmarked) [6d] |  | 14.3 µM |  |  | 6.255 |  |  |  |  |  |  |  |  |  |  |  |
| C=C(C)[C@@H]1CC[C@]2(COC(=O)c3cccc(C(=O)N4CCCCC4)c3)CC[C@]3(C)C(CCC4[C@@]5(C)CC[C@H](O)C(C)(C)C5CC[C@]43C)C12 (some centres unmarked) [7c] |  |  |  |  | 5.773 |  |  |  |  |  |  |  |  | not soluble in DMSO |  |  |
| C=C(C)[C@@H]1CC[C@]2(COC(=O)c3ccccc3C(=O)N3CCOCC3)CC[C@]3(C)C(CCC4[C@@]5(C)CC[C@H](O)C(C)(C)C5CC[C@]43C)C12 (some centres unmarked) [6b] |  | 15 µM |  |  | 5.979 |  |  |  |  |  |  |  |  |  |  |  |
| C#CC1(NC(=O)CCCCCCCCCC(=O)OC[C@]23CC[C@@H](C(=C)C)C2C2CCC4[C@@]5(C)CC[C@H](O)C(C)(C)C5CC[C@@]4(C)[C@]2(C)CC3)CCCCC1 (some centres unmarked) [5e] |  | > 100 µM |  |  | 6.093 |  |  |  |  |  |  |  |  |  |  |  |
| C#CCNC(=O)C(C)=CC(=O)OCC12CCC(C(=C)C)C1C1CCC3C4(C)CCC(O)C(C)(C)C4CCC3(C)C1(C)CC2 (centres unmarked) [3a] |  | 12.5 µM |  |  | 5.326 |  |  |  |  | 15.3 µM |  |  |  |  |  |  |
| C=C(C)[C@@H]1CC[C@]2(COC(=O)CCCC(=O)N3CCCCC3)CC[C@]3(C)C(CCC4[C@@]5(C)CC[C@H](O)C(C)(C)C5CC[C@]43C)C12 (some centres unmarked) [4c] |  |  |  |  | 5.012 |  |  |  |  |  |  |  |  | not soluble in DMSO |  |  |
